Laboratory results published in patent US10512271B2, “Method for preventing or treating microbial growth on a manufactured product” (Stellenbosch University, priority 2014, dated 2019).
Square brackets hold non-standard residues; d marks the D form. Peptide text beside a SMILES is read from it. ξ: configuration not given here. Orn = NCCC[C@H](N)C(=O)O; ξP = O=C(O)C1CCCN1

Experiments:
Gram-negative organisms = assay: Activity of treated CL filters against Gram-negative organisms; format: cell-based
[1] = Wettability of treated filters (water drop size and time to absorption); format: physicochemical
Protocol: The wettability of untreated and GS- and Trc-treated filters were determined to ascertain the effect the peptides have on the hydrophobicity of the filters. Water containing blue food colouring (50 μL) was pipetted onto untreated and treated filters and the filters were monitored for the drop size and time to complete absorption.
The wettability, an indicator of hydrophilic/hydrophobic character, could possibly be altered by the adsorption of peptide, and this change in character would be an indication of the orientation in which in the peptide adsorbed to the various filters. The wettability of untreated and treated filters was determined (Table 3) and the untreated filters were rated in terms of hydrophobicity based on the time it took for a water droplet to completely absorb into the filter. […] Trc treatment made CA much more hydrophilic, while GS also lead to an increase in hydrophilicity, indicating the exposure of the polar amino acids to the surface. Trc made the HAWP filters more hydrophobic, whereas the gramicidin S made the filter more hydrophilic.

[2] = Peptide adsorbed to filters, change in absorbance (A230) of incubation solution
M. luteus = assay: Cell viability (vitality) assay, low nutrient environment, high cell count; format: cell-based, Micrococcus luteus
Protocol: Treated and untreated matrixes (filters, membrane and films) were punched into 5 mm disks and triplicate disks were transferred to black […] microplates. A mid-log phase M. luteus culture was diluted with LB media to A620 of 0.20 (1.3×10^7 CFU/mL). Each well received […] of the diluted culture ([…]) on top of the 5 mm disk. The plate was incubated at 37° C. for one hour after which 90 μL phosphate-buffered saline (PBS) and 10 μL CellTiter-Blue® Reagent was added to each well. The plate was again incubated for 2 hours at 37° C. After the […] incubation in the low nutrient environment, the fluorescence was determined at an excitation wavelength of 530 nm and emission wavelength of 590 nm. The fluorescence reading was taken with a Varioskan™ Multimode reader from Thermo Scientific™ controlled by Skanit Software 2.4.1 from Thermo Electron. Each plate was shaken for 5 seconds before measurements were taken at 25° C.
Cell viability was calculated using the equation: […]
Different filters, surfaces and nanofibers, treated with Trc extract or GS, were assessed for the more direct short-term killing of M. luteus (sterilisation) using a low nutrient environment, high cell count and the Alamar Blue vitality assay to assess bacterial metabolism. […] This could be due to the limited spreading of the 5 μL culture on the filter, limiting the contact of the bacteria with the rest of the Trc-coated filter, and thus this assay could have underestimated the overall filter activity.

red blood cells = assay: Haemolytic assay on treated filter disks; format: cell-based; settings: peptide in solution
Protocol: Fresh blood from anonymous donors (obtained from the Western Cape Blood transfusion Service, South Africa) was transferred to a sterile Falcon® tube, filled with sterile phosphate buffered saline (PBS: 4.0% (w/v) NaCl, 0.1% (w/v) KC, 0.72% (w/v) Na2HPO4, 0.1% (w/v) KH2PO4, pH 7.2, 5× concentrated stock solution) and centrifuged at 1200×g for 3 minutes. The supernatant was removed and the process repeated. The supernatant was removed once again and remaining blood cells were used for the assays. A clear 96-well microplate was used for this assay. Three disks of each of the matrixes (treated and untreated) were placed into the wells and 4 wells received 10 μL of gramicidin S as positive haemolytic control (1.0 mg/mL). Blood (100 μL at 2% hematocrit) was pipetted into each of the wells, after which the plates were sealed and incubated at 37° C. for 2 hours. […] The absorbance was measured at 595 nm. Percentage haemolysis was calculated by adapting an equation used for dose response assays (Rautenbach, Gerstner, Vlok, Kulenkamff and Westerhoff, 2005, Anal. Biochem. 350:81-90):
A standard curve of tyrocidine doubling dilution (dose response), starting at 20 μg/mL, was used to determine the amount of Tres leading to lysis. Lysis was determined from the linear part of the dose-response curve using the equation: (% haemolysis−2.38)/5.74=[Trc] μg/mL.

[3] = tested on: Micrococcus luteus NCTC 8340; assay: Antibacterial CFU growth assay, high nutrient environment; format: cell-based
Protocol: Micrococcus luteus NCTC 8340 was cultured from a freezer stock on Luria Bertani plates (LB: 1% (w/v) NaCl (Merck), 1% (w/v) tryptone (Merck), 0.5% (w/v) yeast extract (Merck), 1.5% (w/v) agar (BioLab) in analytical grade water) and incubated at 37° C. for a period of 48 hours. A colony inoculate in 20 mL of sterile LB broth was incubated at 37° C. until an A620=0.6 was reached. Peptide-treated matrix and a control untreated matrix were transferred to a LB agar plate (high nutrient environment). The M. luteus culture was diluted to A620 of 0.2, further diluted (2000-10000 fold) and transferred to both treated and untreated filters on the LB plate. Plates were incubated for 48 hours at 37° C., after which the matrixes were inspected for the number of colony forming units (CFU).

[4] = Polycarbonate (PC, 0.45 μm pores)
[5] = Polyvinylidene difluoride (GVLP, 0.22 μm pores)
[6] = Polyvinylidene difluoride (HVLP, 0.45 μm pores)

CC(C)C[C@@H]1NC(=O)[C@H](CCCN)NC(=O)[C@H](C(C)C)NC(=O)C2CCCN2C(=O)[C@@H](Cc2ccccc2)NC(=O)[C@H](CC(C)C)NC(=O)[C@H](CCCN)NC(=O)[C@H](C(C)C)NC(=O)C2CCCN2C(=O)[C@@H](Cc2ccccc2)NC1=O (some centres unmarked) [GS, Cyclo-(VOLfPVOLfP)] (cyclo(L[dF][ξP]V[Orn]L[dF][ξP]V[Orn]))
overt activity against Gram-negative organisms (Gram-negative organisms): not demonstrated
Drop Diameter ([1]; Cellulose (CL, No 1)): >1 cm
Time until absorbed ([1]; Cellulose (CL, No 1)): <0.167 min
induced change in hydrophobicity ([1]; Cellulose (CL, No 1)): no change
Drop Diameter ([1]; Cellulose Acetate (CA)): 0.85 cm
Time until absorbed ([1]; Cellulose Acetate (CA)): 5.01 min
induced change in hydrophobicity ([1]; Cellulose Acetate (CA)): decrease
Drop Diameter ([1]; GSWP, 0.22 μm pores): 0.81 cm
Time until absorbed ([1]; GSWP, 0.22 μm pores): 3.55 min
induced change in hydrophobicity ([1]; GSWP, 0.22 μm pores): increase
Drop Diameter ([1]; HAWP, 0.45 μm pores): 0.96 cm
induced change in hydrophobicity ([1]; HAWP, 0.45 μm pores): slight
Time until absorbed ([1]; HAWP, 0.45 μm pores, 50 μL water drop): 2.20 min
Drop Diameter ([1]; High density cellulose (HDC)): 0.94 cm
Time until absorbed ([1]; High density cellulose (HDC)): >30 min
induced change in hydrophobicity ([1]; High density cellulose (HDC)): slight
Drop Diameter [1, 4]: 0.73 cm
Time until absorbed [1, 4]: >30 min
induced change in hydrophobicity [1, 4]: no change
Drop Diameter [1, 5]: 1.00 cm
Time until absorbed [1, 5]: 17.25 min
induced change in hydrophobicity [1, 5]: increase
Drop Diameter [1, 6]: 0.72 cm
Time until absorbed [1, 6]: 9.20 min
induced change in hydrophobicity [1, 6]: increase
peptide adsorbed, Absorbance (A230) ([2]; GVHP (0.22 μm) filter): 5.3±1.1 μg/cm^2
peptide adsorbed, Absorbance (A230) ([2]; HVLP (0.45 μm) filter): 2.8±0.6 μg/cm^2
peptide adsorbed, Absorbance (A230) ([2]; Polycarbonate filter): 1.2±2.2 μg/cm^2
short-term killing of M. luteus (sterilisation) (M. luteus; HDC and CL filters, FIG. 3A): Good protection
short-term killing of M. luteus (sterilisation) (M. luteus; HVLP filter, FIG. 3A): good protection
short-term killing of M. luteus (sterilisation) (M. luteus; all the other filters except PC, compared with growth assay): improved activity
concentration at which lysis of red blood cells starts (red blood cells): > 10 µg/mL
protection of treated filters against overt colonisation by M. luteus ([3]; 48 hour growth assay, low cell count, high nutrient environment, summary of Table 4): only protected CL, HDC and HVLP against overt colonisation
M. luteus, detected CFU/cm^2 after 48 h in nutrient rich environment ([3]; Cellulose (CL)): 0 CFU/cm^2
M. luteus, detected CFU/cm^2 after 48 h in nutrient rich environment ([3]; Cellulose Acetate (CA)): 3 ± 1 CFU/cm^2
M. luteus, detected CFU/cm^2 after 48 h in nutrient rich environment ([3]; High density cellulose (HDC)): 0 CFU/cm^2
M. luteus, detected CFU/cm^2 after 48 h in nutrient rich environment ([3]; Mixed nitrocellulose/cellulose acetate esters (GSWP 0.22 μm)): 3 ± 1 CFU/cm^2
M. luteus, detected CFU/cm^2 after 48 h in nutrient rich environment ([3]; Mixed nitrocellulose/cellulose acetate esters (HAWP, 0.45 μm)): 4 ± 1 CFU/cm^2
M. luteus, detected CFU/cm^2 after 48 h in nutrient rich environment ([3]; Polycarbonate (PC, 0.45 um)): 4 ± 1 CFU/cm^2
M. luteus, detected CFU/cm^2 after 48 h in nutrient rich environment ([3]; Polyvinylidene difluoride (GVHP, 0.22 μm)): 3 ± 1 CFU/cm^2
M. luteus, detected CFU/cm^2 after 48 h in nutrient rich environment ([3]; Polyvinylidene difluoride (HVLP, 0.45 μm)): 0 CFU/cm^2
